Test results from patent US20230073777A1, “CYCLIC-AMP RESPONSE ELEMENT BINDING PROTEIN (CBP) AND/OR ADENOVIRAL E1A BINDING PROTEIN OF 300 KDA (P300) DEGRADATION COMPOUNDS AND METHODS OF USE” (CULLGEN (SHANGHAI), INC., priority 2019, published 2023).

Tests used:
LNCaP cells = assay: LNCaP cell viability assay (CellTiter-Glo); type: cell-based; settings: Homo sapiens, 72 h; LNCaP prostate cancer cell viability inhibition, 3 days, CellTiter-Glo (Table 3)
Description: LNCaP cells seeded in 96-well plates were treated with 10 μM GNE-781 or selected bivalent compounds, i.e. P-001, P-002, and P-019, following a 12-point 3-fold serial dilution. Three days after treatment, cell viability was determined using the CellTiter-Glo kit (Promega) following manufacturer's instructions. Cell viability was normalized to the mean values of 3 replicates of untreated cells. Dose-dependent response was analyzed following the least-squares non-linear regression method using the GraphPad Prism 5.0 software.
LNCaP cells were treated with GNE-781 or selected bivalent compounds for 3 days at indicated concentrations following a 3-fold serial dilution.
Cells were seeded at a density of 5000 cells per well in 96-well assay plates and treated with test compounds following a 12-point 3-fold serial dilution. Three days later, cell viability was determined using the CellTiter-Glo assay kit according to the manufacturer's instructions. The dose-response curves were determined and IC50 values were calculated using the GraphPad Prism software following a nonlinear regression (least squares fit) method.

P300 = P300 (Homo sapiens, UniProt Q09472); assay: Immunoblotting of P300 protein levels in LNCaP or 22RV1 cells; type: cell-based; parameters: LNCaP or 22RV1 cells that express CBP/P300 proteins were treated with GNE-781 or the bivalent compounds; endogenous in cells; host or cells: LNCaP (clone FGC) or 22RV1 cells; settings: percentage of inhibition of p300 at 10 nM (Table 3); read-out: Degradation (10 nM)
Description: Specific exemplary bivalent compounds were characterized in LNCaP or 22RV1 cells. LNCaP or 22RV1 cells that express CBP/P300 proteins were treated with GNE-781 or the bivalent compounds disclosed herein (P-001 to P-174) for indicated hours. Cells were collected, lysed and subject to immunoblotting using an antibody specific to P300 or CBP proteins. Tubulin or vinculin was included as the loading control. DMSO was used as the negative control.
Cultured cells or tissue chunks were washed with cold PBS once and lysed in cold RIPA buffer supplemented with protease inhibitors and phosphatase inhibitors (Beyotime Biotechnology). The solutions were then incubated at 4° C. for 30 minutes with gentle agitation to fully lyse cells. Cell lysates were centrifuged at 13,000 rpm for 10 minutes at 4° C. and pellets were discarded. Total protein concentrations in the lysates were determined by BCA assays (Beyotime Biotechnology). Cell lysates were mixed with Laemmli loading buffer to 1× and heated at 99° C. for 5 min. Proteins were resolved on SDS-PAGE and visualized by chemiluminescence. Images were taken by a ChemiDoc MP Imaging system (Bio-Rad). Protein bands were quantitated using the accompanied software provided by Bio-Rad.

Sequence of P300 (Q09472 whole entry): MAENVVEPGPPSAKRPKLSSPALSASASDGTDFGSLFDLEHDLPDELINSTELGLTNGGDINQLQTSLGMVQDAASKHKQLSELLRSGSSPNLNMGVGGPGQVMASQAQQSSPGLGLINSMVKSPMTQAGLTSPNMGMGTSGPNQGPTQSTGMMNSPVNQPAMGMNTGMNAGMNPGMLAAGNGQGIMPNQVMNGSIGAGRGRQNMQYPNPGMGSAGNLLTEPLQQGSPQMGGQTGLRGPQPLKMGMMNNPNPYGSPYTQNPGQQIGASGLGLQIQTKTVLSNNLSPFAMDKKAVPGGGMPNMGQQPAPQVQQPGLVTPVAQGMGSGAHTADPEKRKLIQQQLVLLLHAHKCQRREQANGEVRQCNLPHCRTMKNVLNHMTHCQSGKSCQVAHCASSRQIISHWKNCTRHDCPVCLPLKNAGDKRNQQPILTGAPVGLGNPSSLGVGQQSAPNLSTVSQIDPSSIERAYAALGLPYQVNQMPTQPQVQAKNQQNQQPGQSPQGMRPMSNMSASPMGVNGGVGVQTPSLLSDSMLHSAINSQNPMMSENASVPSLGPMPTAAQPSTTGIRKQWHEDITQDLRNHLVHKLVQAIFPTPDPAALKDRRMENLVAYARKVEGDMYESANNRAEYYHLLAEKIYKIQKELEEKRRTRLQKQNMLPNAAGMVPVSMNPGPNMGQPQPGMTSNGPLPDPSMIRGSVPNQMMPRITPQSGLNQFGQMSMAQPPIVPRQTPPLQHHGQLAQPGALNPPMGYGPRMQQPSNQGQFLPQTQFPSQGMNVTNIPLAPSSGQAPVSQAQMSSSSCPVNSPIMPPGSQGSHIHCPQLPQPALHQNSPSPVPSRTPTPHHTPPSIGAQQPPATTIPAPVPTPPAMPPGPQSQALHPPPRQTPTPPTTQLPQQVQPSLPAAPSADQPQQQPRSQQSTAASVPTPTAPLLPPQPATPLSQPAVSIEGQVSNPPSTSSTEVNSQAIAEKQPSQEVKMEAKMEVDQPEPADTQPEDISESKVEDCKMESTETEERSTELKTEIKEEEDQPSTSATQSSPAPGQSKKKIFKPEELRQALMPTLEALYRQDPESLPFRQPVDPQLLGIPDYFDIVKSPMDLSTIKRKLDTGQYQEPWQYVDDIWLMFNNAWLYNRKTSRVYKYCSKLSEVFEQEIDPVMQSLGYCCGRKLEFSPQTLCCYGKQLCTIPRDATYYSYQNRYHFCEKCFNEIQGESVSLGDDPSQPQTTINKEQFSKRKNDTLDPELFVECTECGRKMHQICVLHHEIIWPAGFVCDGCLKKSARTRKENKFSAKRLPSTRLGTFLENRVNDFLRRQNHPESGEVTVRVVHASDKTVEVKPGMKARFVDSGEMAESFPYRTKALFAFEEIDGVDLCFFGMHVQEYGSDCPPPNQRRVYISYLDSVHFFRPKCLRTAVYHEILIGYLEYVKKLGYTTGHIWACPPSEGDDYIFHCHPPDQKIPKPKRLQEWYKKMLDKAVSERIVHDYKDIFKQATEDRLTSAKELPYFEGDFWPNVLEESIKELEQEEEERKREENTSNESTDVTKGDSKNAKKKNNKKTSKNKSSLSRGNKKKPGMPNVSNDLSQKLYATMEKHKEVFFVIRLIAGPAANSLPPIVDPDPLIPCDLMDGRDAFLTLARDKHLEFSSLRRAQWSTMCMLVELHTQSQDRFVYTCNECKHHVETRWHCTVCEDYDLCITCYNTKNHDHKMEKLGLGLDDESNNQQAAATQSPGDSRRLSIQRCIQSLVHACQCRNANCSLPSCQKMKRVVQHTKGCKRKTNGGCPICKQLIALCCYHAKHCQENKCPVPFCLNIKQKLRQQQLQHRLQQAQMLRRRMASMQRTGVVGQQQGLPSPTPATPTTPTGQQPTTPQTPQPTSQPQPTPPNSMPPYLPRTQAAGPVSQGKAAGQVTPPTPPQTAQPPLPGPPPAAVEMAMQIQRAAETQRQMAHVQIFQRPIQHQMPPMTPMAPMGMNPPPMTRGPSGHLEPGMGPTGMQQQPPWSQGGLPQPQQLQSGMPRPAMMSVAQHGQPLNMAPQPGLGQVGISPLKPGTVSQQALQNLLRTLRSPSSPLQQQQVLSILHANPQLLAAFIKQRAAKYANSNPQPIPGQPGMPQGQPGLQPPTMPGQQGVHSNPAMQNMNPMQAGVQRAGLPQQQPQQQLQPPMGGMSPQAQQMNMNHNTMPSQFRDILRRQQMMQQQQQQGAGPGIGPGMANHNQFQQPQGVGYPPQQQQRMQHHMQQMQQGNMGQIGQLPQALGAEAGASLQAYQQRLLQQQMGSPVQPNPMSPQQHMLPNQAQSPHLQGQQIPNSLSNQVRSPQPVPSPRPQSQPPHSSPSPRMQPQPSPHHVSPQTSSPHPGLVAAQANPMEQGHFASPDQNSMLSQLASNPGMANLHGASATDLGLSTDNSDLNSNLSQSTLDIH

Compound	IC50 (LNCaP cells)	inhibition at 0.01 µM (P300)
CC(=O)N1CCc2c(c(N3CCCc4cc(-c5cnn(C)c5)c(C(F)F)cc43)nn2C2CCN(CCCCCCOc3cccc4c3C(=O)N(C3CCC(=O)NC3=O)C4=O)CC2)C1 (centres unmarked) [P-113, 4-((6-(4-(5-acetyl-3-(7-(difluoromethyl)-6-(1-methyl-1H-pyrazol-4-yl)-3,4-dihydroquinolin-1(2H)-yl)-4,5,6,7-tetrahydro-1H-pyrazolo[4,3-c]pyridin-1-yl)piperidin-1-yl)hexyl)oxy)-2-(2,6-dioxopiperidin-3-yl)isoindoline-1,3-dione]	14.8 nM	> 80%
CNC(=O)N1CCc2c(c(N3CCCc4cc(-c5cnn(C)c5)c(C(F)F)cc43)nn2C2CCN(C(=O)CCCCCC(=O)N[C@H](C(=O)N3C[C@H](O)C[C@H]3C(=O)NCc3ccc(-c4scnc4C)cc3)C(C)(C)C)CC2)C1 [P-059, 3-(7-(Difluoromethyl)-6-(1-methyl-1H-pyrazol-4-yl)-3,4-dihydroquinolin-1(2H)-yl)-1-(1-(7-(((S)-1-((2S,4R)-4-hydroxy-2-((4-(4-methylthiazol-5-yl)benzyl)carbamoyl)pyrrolidin-1-yl)-3,3-dimethyl-1-oxobutan-2-yl)amino)-7-oxoheptanoyl)piperidin-4-yl)-N-methyl-1,4,6,7-tetrahydro-5H-pyrazolo[4,3-c]pyridine-5-carboxamide]	60.6 nM	< 20%
CNC(=O)N1CCc2c(c(N3CCCc4cc(-c5cnn(C)c5)c(C(F)F)cc43)nn2C2CCN(C(=O)CCCCC#Cc3cccc4c3C(=O)N(C3CCC(=O)NC3=O)C4)CC2)C1 (centres unmarked) [P-094, 3-(7-(Difluoromethyl)-6-(1-methyl-1H-pyrazol-4-yl)-3,4-dihydroquinolin-1(2H)-yl)-1-(1-(7-(2-(2,6-dioxopiperidin-3-yl)-3-oxoisoindolin-4-yl)hept-6-ynoyl)piperidin-4-yl)-N-methyl-1,4,6,7-tetrahydro-5H-pyrazolo[4,3-c]pyridine-5-carboxamide]	228 nM	

Results, then the compound that gave them:

IC50 (LNCaP cells)	inhibition at 0.01 µM (P300)	Compound
> 1000 nM		CC(=O)N1CCc2c(c(N3CCCc4cc(-c5cnn(C)c5)c(C(F)F)cc43)nn2C2CCN(CCN3CCN(Cc4cccc5c4C(=O)N(C4CCC(=O)NC4=O)C5=O)CC3)CC2)C1 (centres unmarked) [P-145, 4-((4-(2-(4-(5-Acetyl-3-(7-(difluoromethyl)-6-(1-methyl-1H-pyrazol-4-yl)-3,4-dihydroquinolin-1(2H)-yl)-4,5,6,7-tetrahydro-1H-pyrazolo[4,3-c]pyridin-1-yl)piperidin-1-yl)ethyl)piperazin-1-yl)methyl)-2-(2,6-dioxopiperidin-3-yl)isoindoline-1,3-dione]
> 500 nM		CC(=O)N1CCc2c(c(N3CCCc4cc(-c5cnn(C)c5)c(C(F)F)cc43)nn2C2CCN(C(=O)CN3CCN(Cc4cccc5c4C(=O)N(C4CCC(=O)NC4=O)C5=O)CC3)CC2)C1 (centres unmarked) [P-138, 4-((4-(2-(4-(5-Acetyl-3-(7-(difluoromethyl)-6-(1-methyl-1H-pyrazol-4-yl)-3,4-dihydroquinolin-1(2H)-yl)-4,5,6,7-tetrahydro-1H-pyrazolo[4,3-c]pyridin-1-yl)piperidin-1-yl)-2-oxoethyl)piperazin-1-yl)methyl)-2-(2,6-dioxopiperidin-3-yl)isoindoline-1,3-dione]
> 500 nM		CNC(=O)N1CCc2c(c(N3CCCc4cc(-c5cnn(C)c5)c(C(F)F)cc43)nn2C2CCN(C(=O)CN3CCN(Cc4cccc5c4C(=O)N(C4CCC(=O)NC4=O)C5=O)CC3)CC2)C1 (centres unmarked) [P-137, 3-(7-(Difluoromethyl)-6-(1-methyl-1H-pyrazol-4-yl)-3,4-dihydroquinolin-1(2H)-yl)-1-(1-(2-(4-((2-(2,6-dioxopiperidin-3-yl)-1,3-dioxoisoindolin-4-yl)methyl)piperazin-1-yl)acetyl)piperidin-4-yl)-N-methyl-1,4,6,7-tetrahydro-5H-pyrazolo[4,3-c]pyridine-5-carboxamide]
